Reference: patent US20110230477A1, “COMPOUNDS, PHARMACEUTICAL COMPOSITION AND METHODS FOR USE IN TREATING METABOLIC DISORDERS” (Euroscreen S.A., priority 2008, published 2011)

What follows are compounds tested against T1, human GPR43 receptor (hGPR43) (Homo sapiens, UniProt O15552) (assay: GTPγS binding assay (SPA method)). Conditions: membranes expressing hGPR43; assay performed in the presence of SCFA; read-out: EC50 (nM) in GTPγ35S assay.
T1 construct: expressed in transfected cells
T1 sequence (O15552 1-330): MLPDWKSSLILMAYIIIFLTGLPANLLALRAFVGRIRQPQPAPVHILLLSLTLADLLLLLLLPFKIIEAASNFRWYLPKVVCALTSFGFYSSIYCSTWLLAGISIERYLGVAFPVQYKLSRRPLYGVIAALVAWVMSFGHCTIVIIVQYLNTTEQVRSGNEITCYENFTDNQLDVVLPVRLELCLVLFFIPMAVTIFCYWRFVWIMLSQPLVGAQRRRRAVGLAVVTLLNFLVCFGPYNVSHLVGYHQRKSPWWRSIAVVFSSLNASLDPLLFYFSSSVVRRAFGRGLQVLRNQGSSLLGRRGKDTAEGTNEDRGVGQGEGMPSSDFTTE
Type: biochemical
Excerpt: The following assay can be used for determination of GPR43 activation. When a GPCR is in its active state, either as a result of ligand binding or constitutive activation, the receptor couples to a G protein and stimulates the release of GDP and subsequent binding of GTP to the G protein. The alpha subunit of the G protein-receptor complex acts as a GTPase and slowly hydrolyses the GTP to GDP, at which point the receptor normally is deactivated. Activated receptors continue to exchange GDP for GTP. […] The assay uses the ability of GPCR to stimulate [^35S]GTPγS binding to membranes expressing the relevant receptors. The assay can, therefore, be used in the direct identification method to screen candidate compounds to endogenous or not endogenous GPCR.
Membrane extracts were prepared from cells expressing the human GPR43 receptor (hGPR43) as follows: the medium was aspirated and the cells were scraped from the plates in Ca^++ and Mg^++-free Phosphate-buffered saline (PBS). The cells were then centrifuged for 3 min at 1500 g and the pellets were resuspended in buffer A (15 mM Tris-HCl pH 7.5, 2 mM MgCl2, 0.3 mM EDTA, 1 mM EGTA) and homogenized in a glass homogenizer. […] Protein content was assayed by the Folin method.
The assay was performed in the presence of SCFA, and was used to determine the activity of the compounds of the invention.
The [^35S]GTPγS assay was incubated in 20 mM HEPES pH7.4, 100 mM NaCl, 10 μg/ml saponin, 30 mM of MgCl2, 10 μM of GDP, 5 μg membrane-expressing hGPR43, 250 μg of wheatgerm agglutinin beads (Amersham, ref: RPNQ001), a range concentration of compounds (from 30 μM to 1 nM) in a final volume of 100 μl for 30 min at room temperature. The SCFA propionate was used at 1 mM final concentration as positive control. The plates were then centrifuged for 10 minutes at 2000 rpm, incubated for 2 hours at room temperature and counted for 1 min in a scintillation counter (TopCount, PerkinElmer).

| Compound | EC50 |
| --- | --- |
| COc1ccc(-c2ccccc2-c2csc(N(C)C(=O)[C@@H](CC(=O)O)CC3CCOCC3)n2)cn1 [Compound 160, (R)-4-((4-(2-(6-methoxypyridin-3-yl)phenyl)thiazol-2-yl)(methyl)amino)-4-oxo-3-((tetrahydro-2H-pyran-4-yl)methyl)butanoic acid] | 244 nM |
| CN(C(=O)[C@@H](CC(=O)O)Cc1ccccc1)c1nc(-c2cccc(OC(F)F)c2)cs1 [Compound 164, (R)-3-benzyl-4-((4-(3-(difluoromethoxy)phenyl)thiazol-2-yl)(methyl)amino)-4-oxobutanoic acid] | 161 nM |
| O=C(O)C[C@@H](CC1CCCC1)C(=O)N(c1nc(-c2cc(Cl)ccc2Cl)cs1)C1CC1 [Compound 166, (R)-3-(cyclopentylmethyl)-4-(cyclopropyl(4-(2,5-dichlorophenyl)thiazol-2-yl)amino)-4-oxobutanoic acid] | 13 nM |
| CN(C(=O)[C@@H](CC(=O)O)CC1CCOCC1)c1nc(-c2cc(Cl)ccc2Cl)cs1 [Compound 168, (R)-4-((4-(2,5-dichlorophenyl)thiazol-2-yl)(methyl)amino)-4-oxo-3-((tetrahydro-2H-pyran-4-yl)methyl)butanoic acid] | 43 nM |
| CN(C(=O)[C@@H](CC(=O)O)CC1CCCC1)c1nc(-c2ccccc2-c2ccc(N3CCOCC3)nc2)cs1 [Compound 171, (R)-3-(cyclopentylmethyl)-4-(methyl(4-(2-(6-morpholinopyridin-3-yl)phenyl)thiazol-2-yl)amino)-4-oxobutanoic acid] | 50 nM |
| O=C(O)C[C@@H](CC1CCCC1)C(=O)N(CCO)c1nc(-c2cc(Cl)ccc2Cl)cs1 [Compound 172, (R)-3-(cyclopentylmethyl)-4-((4-(2,5-dichlorophenyl)thiazol-2-yl)(2-hydroxyethyl)amino)-4-oxobutanoic acid] | 355 nM |
| CN(C(=O)[C@@H](CC(=O)O)Cc1ccccc1)c1nc(-c2cc(Cl)cc(Cl)c2Cl)cs1 [Compound 175, (R)-3-benzyl-4-(methyl(4-(2,3,5-trichlorophenyl)thiazol-2-yl)amino)-4-oxobutanoic acid] | 57 nM |
| COc1ccc(-c2ccc(Cl)c(-c3csc(N(C)C(=O)[C@@H](CC(=O)O)Cc4ccccc4)n3)c2)cn1 [Compound 177, (R)-3-benzyl-4-((4-(2-chloro-5-(6-methoxypyridin-3-yl)phenyl)thiazol-2-yl)(methyl)amino)-4-oxobutanoic acid] | 127 nM |
| COc1ccc(-c2ccccc2-c2csc(N(C(=O)[C@@H](CC(=O)O)Cc3ccccc3)C3CC3)n2)cn1 [Compound 178, (R)-3-benzyl-4-(cyclopropyl(4-(2-(6-methoxypyridin-3-yl)phenyl)thiazol-2-yl)amino)-4-oxobutanoic acid] | 30 nM |
| CN1CCOc2cc(-c3ccccc3-c3csc(N(C)C(=O)[C@@H](CC(=O)O)Cc4ccccc4)n3)cnc21 [Compound 182, (R)-3-benzyl-4-(methyl(4-(2-(4-methyl-3,4-dihydro-2H-pyrido[3,2-b][1,4]oxazin-7-yl)phenyl)thiazol-2-yl)amino)-4-oxobutanoic acid] | 92 nM |
| O=C(O)C[C@@H](Cc1ccccc1)C(=O)N(c1nc(-c2cc(C(F)(F)F)ccc2Cl)cs1)C1CC1 [Compound 191, (R)-3-benzyl-4-((4-(2-chloro-5-(trifluoromethyl)phenyl)thiazol-2-yl)(cyclopropyl)amino)-4-oxobutanoic acid] | 37 nM |
| CN1CCOc2cc(-c3ccccc3-c3csc(N(C(=O)[C@@H](CC(=O)O)CC4CCCC4)C4CC4)n3)cnc21 [Compound 194, (R)-3-(cyclopentylmethyl)-4-(cyclopropyl(4-(2-(4-methyl-3,4-dihydro-2H-pyrido[3,2-b][1,4]oxazin-7-yl)phenyl)thiazol-2-yl)amino)-4-oxobutanoic acid] | 30 nM |

The remaining lines, values ahead:

| EC50 | Compound |
| --- | --- |
| 2170 nM | C[C@H](c1ccccc1)[C@@H](CC(=O)O)C(=O)N(C)c1nc(-c2ccccc2Cl)cs1 [Compound 195, (3R,4S)-3-((4-(2-chlorophenyl)thiazol-2-yl)(methyl)carbamoyl)-4-phenylpentanoic acid] |
| 1830 nM | O=C(O)C[C@@H](Cc1ccccc1)C(=O)Nc1ccc(-c2ccccc2Cl)c[n+]1[O-] [Compound 196, (R)-2-(2-benzyl-3-carboxypropanamido)-5-(2-chlorophenyl)pyridine 1-oxide] |
| 1910 nM | O=C(O)C[C@@H](Cc1ccccc1)C(=O)Nc1cnc(-c2ccccc2Cl)cn1 [Compound 197, (R)-3-benzyl-4-((5-(2-chlorophenyl)pyrazin-2-yl)amino)-4-oxobutanoic acid] |
| 1380 nM | COCCN(C(=O)[C@@H](CC(=O)O)Cc1ccccc1)c1nc(-c2ccccc2Cl)cs1 [Compound 199, (R)-3-benzyl-4-((4-(2-chlorophenyl)thiazol-2-yl)(2-methoxyethyl)amino)-4-oxobutanoic acid] |
| 1360 nM | O=C(O)C[C@@H](Cc1ccccc1)C(=O)N(CCOCc1ccccc1)c1nc(-c2ccccc2Cl)cs1 [Compound 201, (R)-3-benzyl-4-((2-(benzyloxy)ethyl)(4-(2-chlorophenyl)thiazol-2-yl)amino)-4-oxobutanoic acid] |
| 1510 nM | Cc1ccc(-c2csc(NC(=O)[C@@H](CC(=O)O)Cc3ccccc3)n2)o1 [Compound 202, (R)-3-benzyl-4-((4-(5-methylfuran-2-yl)thiazol-2-yl)amino)-4-oxobutanoic acid] |
| 1780 nM | O=C(O)C[C@@H](Cc1ccccc1)C(=O)Nc1cc(-c2cccc(C(F)(F)F)c2)n[nH]1 [Compound 203, (R)-3-benzyl-4-oxo-4-((3-(3-(trifluoromethyl)phenyl)-1H-pyrazol-5-yl)amino)butanoic acid] |
| 2320 nM | CN(C(=O)[C@@H](CC(=O)O)Cc1ccccc1)c1nc(-c2ccccc2-c2ccc(C#N)cc2)cs1 [Compound 206, (R)-3-benzyl-4-((4-(4′-cyano-[1,1′-biphenyl]-2-yl)thiazol-2-yl)(methyl)amino)-4-oxobutanoic acid] |
| 2910 nM | Cc1sc(NC(=O)[C@@H](CC(=O)O)Cc2ccccc2)c(C(N)=O)c1-c1ccc(Cl)cc1Cl [Compound 207, (3R)-3-benzyl-4-((3-carbamoyl-4-(2,4-dichlorophenyl)-5-methylthiophen-2-yl)amino)-4-oxobutanoic acid] |
| 2470 nM | Cc1nc(CC(CC(=O)O)C(=O)N(C)c2nc(-c3ccccc3Cl)cs2)cs1 (stereo not drawn) [Compound 209, 4-((4-(2-chlorophenyl)thiazol-2-yl)(methyl)amino)-3-((2-methylthiazol-4-yl)methyl)-4-oxobutanoic acid] |
| 2680 nM | Cc1cc(CC(CC(=O)O)C(=O)N(C)c2nc(-c3ccccc3Cl)cs2)no1 (stereo not drawn) [Compound 210, 4-((4-(2-chlorophenyl)thiazol-2-yl)(methyl)amino)-3-((5-methylisoxazol-3-yl)methyl)-4-oxobutanoic acid] |
| 341 nM | CN(C(=O)[C@@H](CC(=O)O)Cc1ccccc1)c1nc(-c2ccccc2-c2cnc3c(c2)CCC(=O)N3C)cs1 [Compound 216, (R)-3-benzyl-4-(methyl(4-(2-(8-methyl-7-oxo-5,6,7,8-tetrahydro-1,8-naphthyridin-3-yl)phenyl)thiazol-2-yl)amino)-4-oxobutanoic acid] |
| 126 nM | CN(C(=O)[C@@H](CC(=O)O)Cc1ccccc1)c1nc(-c2ccccc2-c2cnc3c(ccn3C)c2)cs1 [Compound 217, (R)-3-benzyl-4-(methyl(4-(2-(1-methyl-1H-pyrrolo[2,3-b]pyridin-5-yl)phenyl)thiazol-2-yl)amino)-4-oxobutanoic acid] |
| 32 nM | CN(C)c1ccc(-c2ccccc2-c2csc(N(C(=O)[C@@H](CC(=O)O)CC3CCCC3)C3CC3)n2)cn1 [Compound 218, (R)-3-(cyclopentylmethyl)-4-(cyclopropyl(4-(2-(6-(dimethylamino)pyridin-3-yl)phenyl)thiazol-2-yl)amino)-4-oxobutanoic acid] |
| 27 nM | COc1ncc(-c2ccccc2-c2csc(N(C(=O)[C@@H](CC(=O)O)CC3CCCC3)C3CC3)n2)cc1F [Compound 220, (R)-3-(cyclopentylmethyl)-4-(cyclopropyl(4-(2-(5-fluoro-6-methoxypyridin-3-yl)phenyl)thiazol-2-yl)amino)-4-oxobutanoic acid] |
